{"source": "patent EP2012792B1", "about": "“USE OF A COMPOUND INDUCING AN INCREASE OF FREE SEROTONIN RATE IN THE BODY, FOR PREPARING A MEDICINE FOR TREATING SKELETAL MUSCLE DEGENERATION OF GENETIC ORIGIN” (Association Française contre les Myopathies, priority 2006, dated 2007)", "key": {"[1]": {"system": "souche de nématode dépourvue de dystrophine", "assay": "Muscle degeneration and paralysis test in dystrophin-deficient nematode strain (degenerative myopathy model)", "type": "in vivo, Caenorhabditis elegans", "details": "7 days of culture at 15°C; for Diminution de la dégénérescence en %: untreated = 0; for Pourcentage d'animaux paralysés à J7: untreated = 100", "method": "Les composés ont été testés sur une souche de nématode dépourvue de dystrophine (Gieseler et al., Current Biology, 2000, vol. 10, p1092-1097) et (Ségalat, Neuromuscular Disorders, 2002, Suppl: S105-9). Cette souche est utilisée comme modèle de myopathie dégénérative. Dans cette souche, jusqu'à 30% des cellules musculaires servant à la locomotion (muscles longitudinaux) dégénèrent à l'état adulte (7 jours à 15°C), ce qui se traduit par une paralysie progressive des animaux.\nLes composés sont administrés par mélange avec la gélose sur laquelle sont cultivés les animaux. Ils pénètrent par diffusion à travers la cuticule des animaux.\nL'effet des composés sur la dégénérescence musculaire est évalué par 1) l'observation du phénotype des animaux (paralysie), et 2) par l'examen cytologique de la dégénérescence musculaire au moyen de marqueurs musculaires : rodamine-phalloidine et anticorps anti-myosine. Cet examen permet de compter le nombre de cellules musculaires en dégénérescence ou mortes (Gieseler et al., 2000, supra)."}, "[2]": {"system": "souris mdx (génotype C57/BL6 mdx5cv)", "assay": "mdx mouse: diaphragm necrosis (test of Raymackers et al.)", "type": "in vivo", "details": "15 mg/kg/jour oral in food; p<5%", "method": "(§1) J. Pathol. […] 2002 Aug; 444(5), 634-43. […] 2000 Sep; 11(9), 725-8.\n(§2) Elles sont testées à 6 semaines.\n(§3) Il a également été démontré que la Fluoxetine chlorhydrate (11 mg/kg/jour), réduit le nombre de fibres centronucléées de 20% environ (p<0,1%)."}, "[3]": {"system": "souris mdx (génotype C57/BL6 mdx5cv)", "assay": "mdx mouse: number of centronucleated fibres (test of Shavlakadze et al.)", "type": "in vivo", "details": "p<0,1%", "method": "as §1, §2, §3"}, "[4]": {"system": "protéolyse du muscle de C. elegans", "assay": "Muscle proteolysis model of C. elegans representative of cachexia (protocol of Zdinak et al.)", "type": "in vivo", "details": "relative to control; concentration not given", "text": "c) Concernant l'action sur la cachexie, il a également pu être montré sur un modèle de protéolyse du muscle de C. elegans representatif de la cachexie, et en utilisant le protocole décrit par Zdinak et al., dans Transgene-coded chimeric proteins as reporters of intracellular proteolysis: starvation-induced catabolism of a lacZ fusion protein in muscle cells of Caenorhabditis elegans, J Cell Biochem. 1997 Oct 1;67(1):143-53 que la sérotonine et l'imipramine chlorhydrate réduisent fortement cette protéolyse (20% de la protéolyse du témoin dans les 2 cas)."}, "[5]": {"system": "souris mdx (génotype C57/BL6 mdx5cv)", "assay": "mdx mouse: histology, fibre size dispersion", "type": "in vivo", "details": "40mg/jour/kg oral in food, treated from 2 to 6 weeks of age, tested at 6 weeks; versus untreated animals", "text": "as §1, §2"}, "[6]": {"system": "souris mdx (génotype C57/BL6 mdx5cv)", "details": "40mg/jour/kg oral in food, treated from 2 to 6 weeks of age", "text": "Les tests effectués chez la souris sont de plusieurs types : histologiques, fonctionnels sur l'animal entier, et fonctionnels sur muscles disséqués. Les tests sont effectués sur la souris mdx (génotype C57/BL6 mdx5cv), modèle murin de myopathie dégénérative. Ces tests sont notamment détaillés dans les publications suivantes auxquelles on pourra se référer : • De Luca A, et al. Am. J. Pathol. 2005 Feb; 166(2), 477-89. • Divet A, et al. Pflugers Arch. 2002 Aug; 444(5), 634-43. Epub 2002 Jul 10. • Rafael JA, et al. Mamm Genome. 2000 Sep; 11(9), 725-8.\nLes composés sont administrés oralement aux souris dans leur nourriture. Les souris sont traitées de l'âge de 2 semaines à 6 semaines. Elles sont testées à 6 semaines."}, "[7]": {"details": "0,1 mg/ml (0,2 mM) in culture agar"}, "[8]": {"details": "0,1 mg/ml (0,3 mM) in culture agar"}, "[9]": {"details": "0,05 mg/ml (0,15 mM) in culture agar"}, "[10]": {"details": "4 mg/ml (10 mM) in culture agar"}}, "note": "Where a name gives a salt, the structure may show the parent alone.", "data": [{"smiles": "CC(CN(C)C)CN1c2ccccc2CCc2ccccc21", "note": "(stereo not shown) [Trimipramine maleate, trimipramine]", "values": [{"measurement": "Diminution de la dégénérescence en %", "setting": "[1]; [7]", "value": 53, "unit": "%"}, {"measurement": "Pourcentage d'animaux paralysés à J7", "setting": "[1]; [7]", "value": 60, "unit": "%"}, {"measurement": "nécrose du diaphragme", "setting": "[2]", "value": "réduit la nécrose du diaphragme"}, {"measurement": "nombre de fibres centronucléées", "setting": "[3]; 15 mg/kg/jour oral in food, result in words", "value": "réduit"}]}, {"smiles": "CNCCCN1c2ccccc2CCc2ccccc21", "note": "[Desipramine chlorhydrate, désipramine]", "values": [{"measurement": "Diminution de la dégénérescence en %", "setting": "[1]; [8]", "value": 58, "unit": "%"}, {"measurement": "Pourcentage d'animaux paralysés à J7", "setting": "[1]; [8]", "value": 58, "unit": "%"}]}, {"smiles": "CN(C)CCC=C1c2ccccc2CCc2ccccc21", "note": "[Amytriptyline chlorhydrate, amitriptyline]", "values": [{"measurement": "Diminution de la dégénérescence en %", "setting": "[1]; [8]", "value": 61, "unit": "%"}, {"measurement": "Pourcentage d'animaux paralysés à J7", "setting": "[1]; [8]", "value": 52, "unit": "%"}]}, {"smiles": "CN(C)CCCN1c2ccccc2CCc2ccccc21", "note": "[Imipramine chlorhydrate, imipramine]", "values": [{"measurement": "Diminution de la dégénérescence en %", "setting": "[1]; [8]", "value": 37, "unit": "%"}, {"measurement": "Pourcentage d'animaux paralysés à J7", "setting": "[1]; [8]", "value": 65, "unit": "%"}, {"measurement": "protéolyse", "setting": "[4]", "value": "20 % de la protéolyse du témoin"}, {"measurement": "Réduction de la dispersion de taille des fibres (marqueur de dégénérescence)", "setting": "[5]", "value": 26, "unit": "%"}, {"measurement": "Augmentation de la tension développée par le muscle EDL sur animaux vivants", "setting": "[6]; tested at 6 weeks", "value": 20, "unit": "%"}, {"measurement": "Augmentation du score avec le test d'agrippement", "setting": "[6]; tested at 6 weeks", "value": 48, "unit": "%"}, {"measurement": "Augmentation de la tension maximale développée par le muscle isolé", "setting": "[6]; triton-skinned fibres", "value": 50, "unit": "%"}]}, {"smiles": "CNCCC(Oc1ccc(C(F)(F)F)cc1)c1ccccc1", "note": "(stereo not shown) [Fluoxetine chlorhydrate, fluoxétine]", "values": [{"measurement": "Diminution de la dégénérescence en %", "setting": "[1]; [9]", "value": 51, "unit": "%"}, {"measurement": "Pourcentage d'animaux paralysés à J7", "setting": "[1]; [9]", "value": 60, "unit": "%"}, {"measurement": "réduction du nombre de fibres centronucléées", "setting": "[3]; 11 mg/kg/jour oral in food", "value": "~20", "unit": "%"}]}, {"smiles": "NCCc1c[nH]c2ccc(O)cc12", "note": "[Sérotonine, 5-hydrotryptamine]", "values": [{"measurement": "Diminution de la dégénérescence en %", "setting": "[1]; [10]", "value": 73, "unit": "%"}, {"measurement": "Pourcentage d'animaux paralysés à J7", "setting": "[1]; [10]", "value": 41, "unit": "%"}, {"measurement": "dégénérescence musculaire", "setting": "[1]; result in words", "value": "diminue également la dégénérescence musculaire"}, {"measurement": "protéolyse", "setting": "[4]", "value": "20 % de la protéolyse du témoin"}]}]}
